Patent US7514432B2, “Compounds and methods of treating cell proliferative diseases, retinopathies and arthritis” (Exonhit Therapeutics SA, priority 2003, dated 2009)
Read-outs that look alike come from different tables or passages of the source.

Legend:
HMEC1 = assay: Boyden chamber migration assay, HMEC1; type: cell-based; details: Homo sapiens, read-out: IC50, migration in Boyden chamber, HMEC1
Experimental: (§1) FIG. 4: Migration assays. (A) Wound healing assay in REF cells. 7.6 10^4 cells were plated on coverslips 48 hours before the experiment. The cells were pre-treated for 30 min. with the compounds, and then a scrape was done using a pipette tip. The scraped coverslips in treatment medium were put under a thermostated microscope coupled to a video camera. Movies were analyzed as described in material and methods, and velocity and total distance covered by the cells were evaluated. Bar graphs represent the mean±SEM of 2 to 4 experiments. (B) Boyden chamber migration assay in HMEC1, NIH3T3 and MDA-MB-231 cells. 5 10^4 to 7.5 10^4 Cells, resuspended in culture medium with or without FBS and with different compound concentrations, were seeded in the upper Boyden blind well on top of 8 μm pore-sized filters. The ability of the cells to migrate through the filter was assayed in the absence or presence of FBS in the lower Boyden chamber. After 16 hours incubation, the medium was removed and replaced with calcein-AM containing medium. After labeling, cells were washed with HBSS and fluorescence was read in a fluorescence plate reader. Fluorescence values were normalized against the fluorescence obtained for the 1% DMSO control. The data plotted are the means±SEM of 2 to 4 independent experiments.
An essential characteristic of malignant cells is their ability to migrate, invade host tissues and to produce metastases. In order to evaluate the capacity of one compound to affect the ability of tumoral cells to migrate, migration assays were performed using highly invasive tumoral cells MDA-MB-231, endothelial cells HMEC1 or fibroblastic cells NIH3T3. This assay was performed using Falcon HTS Fluoroblock inserts. […] Fluorescence data were collected using Fluoroskan Ascent FL fluorescence plate reader at an excitation wavelength (Ex) of 485 nm and emission wavelength (Em) of 517 nm. Only those labelled cells that passed through the Matrigel layer and the membrane were detected. […]

[1] = Screening in vivo rising and repeated-dose toxicity study in rats; details: for body weight: at 300 mg/kg/day p.o.; for biological changes (hematology and blood biochemistry) / clinical signs / death during the study / tolerability: p.o. 10, 50, 300 mg/kg per day, 3 days each
Experimental: Screening in vivo rising and repeated-dose toxicity study in rats was performed on 3 rats per compound with the following schedule: • a. day 1 to day 3: 10 mg/kg p.o. per day, • b. day 4 to day 6: 50 mg/kg p.o. per day, • c. day 7 to day 9: 300 mg/kg p.o. per day.
Clinical signs, bodyweight, food consumption, and blood parameters were followed.

MDA-MB-231 = assay: Cell viability assay (MTT), MDA-MB-231; type: cell-based, human; details: 1% DMSO
Summary of the method: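 Cells seeded 24 h before treatment with 0–200 μM compound (11 concentrations, 1% DMSO final) in 10% or 0.5% FBS medium; exposure 16 h, 3 or 6 days, fed every 3 days in 6-day runs. MTT 0.5 mg/ml read at 550 nm; IC50 from dose-response curves, mean±SEM.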

NIH3T3 = assay: Boyden chamber migration assay, NIH3T3; type: cell-based, mouse; details: Mus musculus, FBS as chemoattractant
Experimental: as §1
An essential characteristic of malignant cells is their ability to migrate, invade host tissues and to produce metastases. In order to evaluate the capacity of one compound to affect the ability of tumoral cells to migrate, migration assays were performed using highly invasive tumoral cells MDA-MB-231, endothelial cells HMEC1 or fibroblastic cells NIH3T3. This assay was performed using Falcon HTS Fluoroblock inserts. Culture medium containing Fetal Bovine Serum (FBS; which is used as a chemoattractant) was added to the plate wells and 2 10^4 to 7.5 10^4 cells resuspended in medium without FBS and with 0.1% BSA were added to each insert well. The compound of interest was added to the medium in both the upper and the lower chambers. Plates were incubated for 16 hours at 37° C. Following incubation, the medium was removed from the upper chamber and the entire insert plate was transferred to a second 24-well plate containing 4 μg/ml Calcein-AM™ in medium containing 0.1% BSA. The plates were incubated for one hour at 37° C., rinsed with Hanks Buffered Saline (HBSS). Fluorescence data were collected using Fluoroskan Ascent FL fluorescence plate reader at an excitation wavelength (Ex) of 485 nm and emission wavelength (Em) of 517 nm. Only those labelled cells that passed through the Matrigel layer and the membrane were detected. Data were analyzed using the GraphPad Prism software and IM50s (dose at which 50% inhibition of cell migration is observed) were calculated.

[2] = Homo sapiens, MDA-MB-231, 16 h, 10% FBS, 16-hours treatment, read-out: IC50 μM, MDA-MB-231
[3] = Homo sapiens, MDA-MB-231, 72 h, 10% FBS, 3-day treatment, read-out: IC50 μM, MDA-MB-231
[4] = Homo sapiens, MDA-MB-231, 144 h, 0.5% FBS, 6-day treatment, read-out: IC50 (μM), MDA-MB-231
[5] = HMEC-1, FBS as chemoattractant, 16 hours

SMILES: Cl.Cl.O=c1cc(CN2CCOCC2)occ1OCCCCCSc1ccnc2cc(C(F)(F)F)ccc12 [EHT 1864, 5-(5-(7-(Trifluoromethyl)quinolin-4-ylthio)pentyloxy)-2-(morpholinomethyl)-4H-pyran-4-one dihydrochloride]
- IC50 (HMEC1; HMEC-1, 16 h): 7.8 ± 1.7 µM
- body weight [1]: mean body weight loss
- biological changes (hematology and blood biochemistry) [1]: Some limited biological changes
- clinical signs [1]: Minimal clinical signs
- death during the study [1]: No death occurred
- tolerability [1]: quite well tolerated up to 300 mg/kg/day
- IC50 (MDA-MB-231; 10% FBS, 6-day treatment, dihydrochloride, read-out: IC50 μM, MDA-MB-231): 9.3 µM
- IC50 (MDA-MB-231; [2]): 126 µM
- IC50 (MDA-MB-231; [3]): 9.9 µM
- IC50 (MDA-MB-231; [4]): 6.3 µM
- IC50 (MDA-MB-231; Homo sapiens, MDA-MB-231, 144 h, 10% FBS, 6-day treatment, read-out: IC50 μM, MDA-MB-231): < 9 µM
- IC50 (NIH3T3; NIH3T3, 16 hours): 20.4 ± 3.5 µM

SMILES: Cl.Cl.Cl.O=c1cc(CN2CCNCC2)occ1OCCCCCSc1ccnc2cc(C(F)(F)F)ccc12 [EHT 8560, 5-(5-(7-(Trifluoromethyl)quinolin-4-ylthio)pentyloxy)-2-((piperazin-1-yl)methyl)-4H-pyran-4-one trihydrochloride]
- IC50 (HMEC1; [5]): 9.5 ± 0.3 µM
- body weight [1]: mean body weight loss
- biological changes (hematology and blood biochemistry) [1]: Some limited biological changes
- clinical signs [1]: Minimal clinical signs
- death during the study [1]: No death occurred
- tolerability [1]: quite well tolerated up to 300 mg/kg/day
- IC50 (MDA-MB-231; [3]): 9 µM
- IC50 (MDA-MB-231; [4]): 4 µM
- IC50 (NIH3T3; NIH3T3, 16 h): 10 ± 0.6 µM

SMILES: CN1CCN(Cc2cc(=O)c(OCCCCCSc3ccnc4cc(C(F)(F)F)ccc34)co2)CC1.Cl.Cl.Cl [EHT 9241, 5-(5-(7-(Trifluoromethyl)quinolin-4-ylthio)pentyloxy)-2-((4-methylpiperazin-1-yl)methyl)-4H-pyran-4-one trihydrochloride]
- IC50 (HMEC1; [5]): 9.1 ± 1.4 µM
- body weight [1]: mean body weight loss
- biological changes (hematology and blood biochemistry) [1]: Some limited biological changes
- clinical signs [1]: Minimal clinical signs
- death during the study [1]: No death occurred
- tolerability [1]: quite well tolerated up to 300 mg/kg/day
- IC50 (MDA-MB-231; 10% FBS, 6-day treatment, trihydrochloride, read-out: IC50 μM, MDA-MB-231): 5.3 µM
- IC50 (MDA-MB-231; [2]): 48.4 µM
- IC50 (MDA-MB-231; [3]): 11.1 µM
- IC50 (MDA-MB-231; [4]): 3.8 µM
- IC50 (NIH3T3; NIH3T3, 16 h): 4.7 ± 0.6 µM
